Assay results as given in patent US7045532B2 (Millennium Pharmaceuticals, Inc., priority 1999, dated 2006).

Key:
[1] = target: T1, Carboxypeptidase A (Bos taurus, UniProt P00730); test: Carboxypeptidase A activity assay; format: biochemical; conditions: Ki class; compounds tested in 5% DMSO, 12 concentrations
T1 sequence (P00730 111-419): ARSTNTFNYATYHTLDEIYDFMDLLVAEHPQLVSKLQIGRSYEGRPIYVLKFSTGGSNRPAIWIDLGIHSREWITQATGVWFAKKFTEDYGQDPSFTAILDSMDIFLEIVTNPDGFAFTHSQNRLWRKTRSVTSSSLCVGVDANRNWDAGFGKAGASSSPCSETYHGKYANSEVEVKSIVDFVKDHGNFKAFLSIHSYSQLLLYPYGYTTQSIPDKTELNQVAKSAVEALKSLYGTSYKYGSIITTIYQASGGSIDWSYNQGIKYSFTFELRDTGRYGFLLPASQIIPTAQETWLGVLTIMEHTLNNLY
Experimental: Carboxypeptidase A activity was measured using a literature assay (Holmquist and Riordan, “Carboxypeptidase A,” Methods of Enzymatic Analysis (1984) p. 44–60). The assay was adapted to a 96 well format by adjusting to a 300 μL assay volume and using ultra-thin bottom plates (Costar/Corning) read at 328 nm. The assay was stopped using EDTA.
The activity of the test compounds was investigated using the procedure outlined above. The compounds were tested in 5% DMSO. Enzyme activity was measured at 12 compound concentrations. The Ki was calculated by using Ki=Kiapp/(1+[S]/Km).
To determine whether a test compound is capable of modulating carboxypeptidase A's ability to cleave a substrate the method described in Holmquist and Riordan, Carboxypeptidase A, p44–60, Peptidase and Their Inhibitors in Method of Enzymatic Analysis (1984), may be used.
The assay may be adapted to a 96 well format by adjusting to a 300 μl assay volume and using ultrathin bottom plates (Costar/Coming) read at 328 nm with a final assay volume of 300 μl. The assay may be stopped using EDTA.

[2] = target: T2, ACE-2 (Homo sapiens, UniProt Q9BYF1); test: ACE-2 Competitive Substrate Assay (ACS Assay); format: biochemical; conditions: Ki class; compounds tested in 5% DMSO, 12 concentrations; read-out: Human ACE-2 Activity
T2 construct: a stop codon inserted after the serine immediately preceding the transmembrane domain; made in house; host or cells: CHO K1 cells (transient transfection, purified from conditioned medium)

[3] = target: T3, ACE (Sigma, A2580) (Sus scrofa, UniProt F1RRW5); test: ACE enzymatic activity assay; format: biochemical, porcine; conditions: Ki class; compounds tested in 5% DMSO, 12 concentrations
T3 construct: ACE from porcine kidney; purchased Sigma A2580; host or cells: porcine kidney
T3 sequence (F1RRW5 34-1309): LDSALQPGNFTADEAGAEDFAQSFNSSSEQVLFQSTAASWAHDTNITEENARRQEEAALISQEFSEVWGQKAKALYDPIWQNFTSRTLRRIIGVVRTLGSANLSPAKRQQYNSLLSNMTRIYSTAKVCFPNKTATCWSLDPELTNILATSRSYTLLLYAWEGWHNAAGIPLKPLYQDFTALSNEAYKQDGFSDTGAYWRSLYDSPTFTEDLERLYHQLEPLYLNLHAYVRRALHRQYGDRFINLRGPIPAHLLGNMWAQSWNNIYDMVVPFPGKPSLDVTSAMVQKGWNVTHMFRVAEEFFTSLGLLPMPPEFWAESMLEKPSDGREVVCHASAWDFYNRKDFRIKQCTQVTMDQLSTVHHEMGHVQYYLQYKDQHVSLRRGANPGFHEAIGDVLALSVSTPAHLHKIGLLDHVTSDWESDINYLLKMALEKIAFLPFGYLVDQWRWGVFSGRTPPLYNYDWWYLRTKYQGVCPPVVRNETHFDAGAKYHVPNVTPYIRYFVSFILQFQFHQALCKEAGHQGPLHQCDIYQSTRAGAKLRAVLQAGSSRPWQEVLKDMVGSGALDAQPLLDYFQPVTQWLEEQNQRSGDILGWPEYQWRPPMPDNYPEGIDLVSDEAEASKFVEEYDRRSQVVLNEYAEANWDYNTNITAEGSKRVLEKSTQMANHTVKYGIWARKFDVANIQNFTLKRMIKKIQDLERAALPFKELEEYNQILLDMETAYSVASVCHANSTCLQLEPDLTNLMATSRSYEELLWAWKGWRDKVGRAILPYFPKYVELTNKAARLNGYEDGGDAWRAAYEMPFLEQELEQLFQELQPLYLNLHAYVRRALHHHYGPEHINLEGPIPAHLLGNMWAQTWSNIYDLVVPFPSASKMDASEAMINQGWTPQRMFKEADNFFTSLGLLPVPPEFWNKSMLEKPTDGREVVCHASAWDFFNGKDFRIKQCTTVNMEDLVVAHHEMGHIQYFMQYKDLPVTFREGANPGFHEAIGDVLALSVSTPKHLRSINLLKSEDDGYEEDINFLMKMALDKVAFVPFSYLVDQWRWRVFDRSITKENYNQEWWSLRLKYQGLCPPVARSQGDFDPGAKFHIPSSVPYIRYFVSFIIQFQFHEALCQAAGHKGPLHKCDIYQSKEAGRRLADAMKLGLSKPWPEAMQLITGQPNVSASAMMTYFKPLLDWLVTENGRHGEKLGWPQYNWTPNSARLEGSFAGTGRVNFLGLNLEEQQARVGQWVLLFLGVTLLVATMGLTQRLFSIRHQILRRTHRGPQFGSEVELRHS
Experimental: ACE (Sigma, A2580) enzymatic activity was assayed in microtiter plates using the following protocol. ACE assay buffer was made from 50 mM HEPES (Sigma), 300 mM sodium chloride (Sigma), and 0.01% Brij-35 (Pierce Chemical Co) at pH 7.5.
Reactions were mixed and incubated at 25° C. Enzymatic cleavage of the substrate is marked by a fluorescence change (excitation 330 nm, emission 415 nm).
The activity of the test compounds was investigated using the procedure outlined above. The compounds were tested in 5% DMSO. Enzyme activity was measured at 12 compound concentrations. […]. […]

T2 sequence (Q9BYF1 18-740 limits assumed): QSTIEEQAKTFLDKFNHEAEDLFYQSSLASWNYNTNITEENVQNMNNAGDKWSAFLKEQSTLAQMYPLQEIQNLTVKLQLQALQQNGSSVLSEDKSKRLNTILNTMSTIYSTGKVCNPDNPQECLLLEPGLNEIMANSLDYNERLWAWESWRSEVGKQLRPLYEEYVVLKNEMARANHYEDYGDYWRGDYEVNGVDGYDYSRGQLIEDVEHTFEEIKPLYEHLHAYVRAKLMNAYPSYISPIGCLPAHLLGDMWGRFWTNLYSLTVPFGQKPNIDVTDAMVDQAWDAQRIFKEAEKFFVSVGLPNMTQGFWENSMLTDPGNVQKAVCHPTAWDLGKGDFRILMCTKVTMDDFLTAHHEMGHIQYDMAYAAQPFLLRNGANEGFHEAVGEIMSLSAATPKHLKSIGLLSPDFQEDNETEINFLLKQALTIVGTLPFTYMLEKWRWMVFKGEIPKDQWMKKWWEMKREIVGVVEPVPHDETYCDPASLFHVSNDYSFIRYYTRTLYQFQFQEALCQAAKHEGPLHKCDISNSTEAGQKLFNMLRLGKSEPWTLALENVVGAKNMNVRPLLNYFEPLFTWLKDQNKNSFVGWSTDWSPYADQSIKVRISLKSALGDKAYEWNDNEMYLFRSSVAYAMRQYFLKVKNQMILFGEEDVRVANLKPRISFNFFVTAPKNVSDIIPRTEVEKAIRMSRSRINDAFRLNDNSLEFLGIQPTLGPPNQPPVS

Row | Compound | Ki [1] [µM] | Ki [2] [µM] | Ki [3] [µM]
1 | CC(C)CC(N[C@H](CC(=O)O)Cc1cccs1)C(=O)O (stereo partly drawn) [EI, 2-(1-Carboxymethyl-2-thiophen-2-yl-ethylamino)-4-methyl-pentanoic acid] | > 50 | > 0.5 | > 50
2 | CCCC(N[C@@H](Cc1c[nH]cn1)C(=O)O)C(=O)O (stereo in doubt) [AF, 2-[1-Carboxy-2-(1H-imidazol-4-yl)-ethylamino]pentanoic acid] | > 50 | > 0.5 | > 50
3 | CCCC(N[C@@H](CC(C)C)C(=O)O)C(=O)O (stereo in doubt) [AQ, 2-(1-Carboxy-butylamino)-4-methyl-pentanoic acid] | > 50 | > 0.5 | > 50
4 | CC(C)CC(N[C@@H](Cc1c[nH]cn1)C(=O)O)C(=O)O (stereo in doubt) [AE, 2-[1-Carboxy-2-(1H-imidazol-4-yl)-ethylamino]4-methyl-pentanoic acid] | > 50 | > 0.5 | > 50
5 | O=C(O)C(Cc1ccccc1)NC(C(=O)O)c1ccccc1 (stereo not drawn) [BO, 2-[(Carboxy-phenyl-methyl)-amino]-3-phenyl-propionic acid] | 10 to 50 | > 0.5 | > 50
6 | CC(C)CC(NCCc1c[nH]cn1)C(=O)O (stereo not drawn) [DZ, 2-[2-(1H-imidazol-4-yl)-ethylamino]-4-methyl-pentanoic acid] | > 50 | > 0.5 | > 50
7 | CC(C)C[C@H](N[C@@H](CCc1ccccc1)C(=O)O)C(=O)OC(C)(C)C [CZ, 2-(1-Carboxy-3-phenyl-propylamino)-4-methyl-pentanoic acid tert-butyl ester] | > 50 | > 0.5 | > 50
8 | CC(C)CC(NC(Cc1cccs1)C(=O)O)C(=O)O (stereo not drawn) [AL, 2-(1-Carobxy-2-thiophen-2-yl-ethylamino)-4-methyl-pentanoic acid] | > 50 | > 0.5 | > 50
9 | CC(C)C[C@@H](NC(CCc1ccccc1)C(=O)O)C(=O)O (stereo partly drawn) [BH, 2-(1-Carboxy-3-phenyl-propylamino)-4-methyl-pentanoic acid] | > 50 | > 0.5 | > 50
10 | CSCC[C@H](NC(CC(C)C)C(=O)O)C(=O)O (stereo partly drawn) [AN, 2-(1-Carboxy-3-methylsulfanyl-propylamino)-4-methyl-pentanoic acid] | 10 to 50 | > 0.5 | > 50
11 | O=C(O)C(CCc1ccccc1)N[C@@H](Cc1c[nH]cn1)C(=O)O (stereo partly drawn) [ER, 2-[1-Carboxy-2-(1H-imidazol-4-yl)-ethylamino]4-phenyl-butync acid] | > 50 | – | > 50
12 | CCCCC(CC(=O)O)N[C@@H](Cc1c[nH]cn1)C(=O)O (single isomer, unassigned) [ET, 3-[1-Carboxy-2-(1H-imidazol-4-yl)-ethylamino]heptanoic acid] | > 50 | – | > 50
13 | 2-[2-(3-Benzyl-3H-imidazol-4-yl)-1-carboxy-ethylamino]-butync acid [GH] | > 50 | – | > 50
14 | CC(C)CC(N[C@H](Cc1cn(Cc2ccccc2)cn1)C(=O)O)C(=O)O (stereo partly drawn) [CX, 2-[2-(1-Benzyl-1H-imidazol-4-yl)-1-carboxy-ethylamino]-4-methyl-pentanoic acid] | > 50 | – | 10 to 50

Now from value to compound:

Row | Ki [1] [µM] | Ki [2] [µM] | Ki [3] [µM] | Compound
15 | > 50 | > 0.5 | > 50 | C[C@H](N[C@@H](CCc1ccccc1)C(=O)O)C(=O)O [P, 2-(1-Carboxy-ethylamino)-4-phenyl-butync acid]
16 | > 50 | > 0.5 | > 50 | CCC(N[C@@H](CCSC)C(=O)O)C(=O)O (stereo partly drawn) [Z, 2-(1-Carboxy-propylamino)-4-methylsulfanyl-butyncacid]
17 | > 50 | – | > 50 | CC(C)CC(N[C@@H](Cc1cnc[nH]1)C(=O)NCCc1ccccc1)C(=O)O (single isomer, unassigned) [FX, 2-[2-(3H-Imidazol-4-yl)-1-phenethylcarbamoyl-ethylamino]-4-methyl-pentanoic acid]
18 | > 50 | – | > 50 | COc1ccc(CCNC(=O)[C@H](Cc2cnc[nH]2)NC(CC(C)C)C(=O)O)cc1 (single isomer, unassigned) [FL, 2-{2-(3H-Imidazol-4-yl)-1-[2-(4-methoxy-phenyl)-ethylcarbamoyl]-ethylamino}4-methyl-pentanoic acid]
19 | 10 to 50 | – | 10 to 50 | CC(C)CC(N[C@@H](Cc1cncn1Cc1cccc2ccccc12)C(=O)O)C(=O)O (single isomer, unassigned) [GL, 2-[1-Carboxy-2-(3-naphthalen-1-ylmethyl-3Himidazol-4-yl)-ethylamino]4-methyl-pentanoic acid]
20 | > 50 | – | > 50 | CC(C)CC(N[C@@H](Cc1cncn1Cc1ccccc1)C(=O)O)C(=O)O (single isomer, unassigned) [FA, 2-[2-(3-Benzyl-3H-imidazol-4-yl)-1-carboxy-ethylamino]-4-methyl-pentanoic acid]
21 | > 50 | – | > 50 | CC(C)CC(N[C@H](CO)Cc1c[nH]cn1)C(=O)O (single isomer, unassigned) [FP, 2-[1-Hydroxymethyl-2-(1H-imidazol-4-yl)-ethylamino)4-methyl-pentanoic acid]
22 | > 50 | – | > 50 | O=C(O)C(Cc1ccccc1)NC(Cc1cncn1Cc1ccccc1)C(=O)O (stereo not drawn) [GE, 3-(3-Benzyl-3H-imidazol-4-yl)-2-(1-carboxy-2-phenyl-ethylamino)-propronic acid]
23 | > 50 | – | > 50 | CC(C)CC(N[C@@H](Cc1cncn1COCc1ccccc1)C(=O)NCCc1ccccc1)C(=O)O (single isomer, unassigned) [FN, 2-[2-(3-Benzyloxymethyl-3H-imidazol-4-yl)-1-phenethylcarbamoyl-ethylamino]-4-methyl-pentanoic acid]
24 | > 50 | – | > 50 | CC(C)CC(N[C@@H](Cc1cncn1Cc1ccc(C(=O)O)cc1)C(=O)O)C(=O)O (single isomer, unassigned) [GP, 4-[5-[2-Carboxy-2-(1-carboxy-3-methyl-butylamino)-ethyl]-imidazol-1-ylmethyl]-benzoic acid]
